# Measured values: PubChem BioAssay AID248 (DTP/NCI, 2004)
# Values joined by “and” are separate entries in the source; they are usually repeats but may differ in a detail not shown here. Equal entries are not always repeated. Toxic doses and inconclusive results are not listed.
# Tested on: L1210 leukemia ip in BDF1 mice, survival T/C
# Assay: NCI In Vivo Anticancer Drug Screen. Data for tumor model L1210 Leukemia (intraperitoneal) in B6D2F1 (BDF1) mice
# Conditions: endpoint: mean survival time, higher = longer survival
# Summary of the method: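 Ratio derived from survival: compound-dosed mice over vehicle-dosed mice, all bearing a transplantable tumor.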
# [1] = dose: 100.0 mg/kg/injection, schedule: Q01DX001 (ip), vehicle: saline
# [2] = dose: 200.0 mg/kg/injection, schedule: Q01DX001 (ip), vehicle: saline
# [3] = dose: 400.0 mg/kg/injection, schedule: Q01DX001 (ip), vehicle: saline
# [4] = dose: 100.0 mg/kg/injection, schedule: Q04DX002 (ip), vehicle: saline with Tween-80
# [5] = dose: 200.0 mg/kg/injection, schedule: Q04DX002 (ip), vehicle: saline with Tween-80
# [6] = dose: 400.0 mg/kg/injection, schedule: Q04DX002 (ip), vehicle: saline with Tween-80
# [7] = dose: 100.0 mg/kg/injection, schedule: Q04DX003 (ip), vehicle: saline with Tween-80
# [8] = dose: 200.0 mg/kg/injection, schedule: Q04DX003 (ip), vehicle: saline with Tween-80
# [9] = dose: 400.0 mg/kg/injection, schedule: Q04DX003 (ip), vehicle: saline with Tween-80
# [10] = dose: 100.0 mg/kg/injection, schedule: Q01DX009 (ip), vehicle: Klucel (hydroxypropylcellulose) (HPC)
# [11] = dose: 100.0 mg/kg/injection, schedule: Q04DX003 (ip), vehicle: Klucel (hydroxypropylcellulose) (HPC)
# [12] = dose: 200.0 mg/kg/injection, schedule: Q01DX009 (ip), vehicle: Klucel (hydroxypropylcellulose) (HPC)
# [13] = dose: 200.0 mg/kg/injection, schedule: Q04DX003 (ip), vehicle: Klucel (hydroxypropylcellulose) (HPC)
# [14] = dose: 400.0 mg/kg/injection, schedule: Q01DX009 (ip), vehicle: Klucel (hydroxypropylcellulose) (HPC)
# [15] = dose: 400.0 mg/kg/injection, schedule: Q04DX003 (ip), vehicle: Klucel (hydroxypropylcellulose) (HPC)
# [16] = dose: 50.0 mg/kg/injection, schedule: Q01DX009 (ip), vehicle: saline with Tween-80
# [17] = dose: 100.0 mg/kg/injection, schedule: Q04DX002 (ip), vehicle: Klucel (hydroxypropylcellulose) (HPC)
# [18] = dose: 200.0 mg/kg/injection, schedule: Q04DX002 (ip), vehicle: Klucel (hydroxypropylcellulose) (HPC)
# [19] = dose: 400.0 mg/kg/injection, schedule: Q04DX002 (ip), vehicle: Klucel (hydroxypropylcellulose) (HPC)
smiles,measurement,setting,value
CN(C(=O)OCc1ccccc1)c1ccc(C(=O)O)cc1,T/C,[1],97 % of control
same,T/C,[2],94 % of control
same,T/C,[3],97 % of control
OCC1SCCS1,T/C,[4],101 % of control
same,T/C,[5],97 % of control
same,T/C,[6],90 % of control
COc1ncnc2c1ncn2C1OC(CF)C(O)C1O (centres undefined),T/C,"dose: 100.0 mg/kg/injection, schedule: Q01DX005 (ip), vehicle: saline",101 % of control
same,T/C,"dose: 200.0 mg/kg/injection, schedule: Q01DX005 (ip), vehicle: saline",103 % of control
CCCCCCCCCCCCN1CCCN(CCCCCCCCCCCC)CC1,T/C,"dose: 100.0 mg/kg/injection, schedule: Q01DX001 (ip), vehicle: saline with Tween-80",100 % of control
same,T/C,[4],97 % of control and 106 % of control
same,T/C,[7],94 % of control and 90 % of control
same,T/C,"dose: 200.0 mg/kg/injection, schedule: Q01DX001 (ip), vehicle: saline with Tween-80",98 % of control
same,T/C,[5],97 % of control and 106 % of control
same,T/C,[8],103 % of control and 87 % of control
same,T/C,"dose: 400.0 mg/kg/injection, schedule: Q01DX001 (ip), vehicle: saline with Tween-80",107 % of control
same,T/C,[6],101 % of control and 92 % of control
same,T/C,[9],90 % of control
O=C(Nc1cc(S(=O)(=O)F)ccc1Cl)c1ccc2ccccc2c1O,T/C,[10],97 % of control
same,T/C,[11],91 % of control
same,T/C,[12],101 % of control
same,T/C,[13],98 % of control
same,T/C,[14],95 % of control
same,T/C,[15],104 % of control
Cc1cccc(N2C(N)=NC(N)=NC2(C)C)c1,T/C,"dose: 25.0 mg/kg/injection, schedule: Q04DX003 (ip), vehicle: Klucel (hydroxypropylcellulose) (HPC)",103 % of control
same,T/C,"dose: 50.0 mg/kg/injection, schedule: Q04DX003 (ip), vehicle: Klucel (hydroxypropylcellulose) (HPC)",124 % of control
same,T/C,"dose: 75.0 mg/kg/injection, schedule: Q01DX001 (ip), vehicle: saline",101 % of control
CC(=O)OCC(=O)C12OC1CC1C3CCC4CC(=O)CCC4(C)C3CC(=O)C12C (centres undefined),T/C,"dose: 100.0 mg/kg/injection, schedule: Q01DX001 (ip), vehicle: other",89 % of control
same,T/C,"dose: 200.0 mg/kg/injection, schedule: Q01DX001 (ip), vehicle: other",90 % of control
same,T/C,"dose: 400.0 mg/kg/injection, schedule: Q01DX001 (ip), vehicle: other",97 % of control
O=C(O)CC(Br)C(=O)c1ccccc1 (centres undefined),T/C,"dose: 12.5 mg/kg/injection, schedule: Q01DX009 (ip), vehicle: saline with Tween-80",91 % of control
same,T/C,"dose: 12.5 mg/kg/injection, schedule: Q04DX003 (ip), vehicle: saline with Tween-80",96 % of control
same,T/C,"dose: 25.0 mg/kg/injection, schedule: Q01DX009 (ip), vehicle: saline with Tween-80",95 % of control
same,T/C,"dose: 25.0 mg/kg/injection, schedule: Q04DX003 (ip), vehicle: saline with Tween-80",96 % of control
same,T/C,[16],95 % of control
same,T/C,"dose: 50.0 mg/kg/injection, schedule: Q04DX003 (ip), vehicle: saline with Tween-80",104 % of control
CCCCCCCCCCP(=S)(CCCC)CCCC,T/C,[11],98 % of control
same,T/C,[13],101 % of control
same,T/C,[15],104 % of control
CC(=O)C=P(c1ccccc1)(c1ccccc1)c1ccccc1,T/C,"dose: 50.0 mg/kg/injection, schedule: Q01DX001 (ip), vehicle: carboxymethylcellulose (CMC)",113 % of control
same,T/C,"dose: 100.0 mg/kg/injection, schedule: Q01DX001 (ip), vehicle: carboxymethylcellulose (CMC)",97 % of control
same,T/C,"dose: 200.0 mg/kg/injection, schedule: Q01DX001 (ip), vehicle: carboxymethylcellulose (CMC)",101 % of control
CCCCCCCCCCCCCCCCC[CH2][Sn]([Cl])([CH2]CCCCCCCCCCCCCCCCC)[CH2]CCCCCCCCCCCCCCCCC,T/C,[17],92 % of control
same,T/C,[18],100 % of control
same,T/C,[19],96 % of control
CCCCSP(=O)(c1ccccc1)N1CCCCC1 (centres undefined),T/C,"dose: 25.0 mg/kg/injection, schedule: Q04DX002 (ip), vehicle: saline with Tween-80",100 % of control
same,T/C,"dose: 50.0 mg/kg/injection, schedule: Q04DX002 (ip), vehicle: saline with Tween-80",92 % of control
same,T/C,[4],92 % of control and 97 % of control
CCCNc1nc(N)[nH]c(=O)c1NC=O,T/C,"dose: 55.0 mg/kg/injection, schedule: Q01DX Z (ip), vehicle: methylcellulose (MC)",105 % of control
same,T/C,"dose: 83.0 mg/kg/injection, schedule: Q01DX Z (ip), vehicle: methylcellulose (MC)",109 % of control
same,T/C,"dose: 125.0 mg/kg/injection, schedule: Q01DX Z (ip), vehicle: methylcellulose (MC)",109 % of control
same,T/C,"dose: 180.0 mg/kg/injection, schedule: Q01DX Z (ip), vehicle: methylcellulose (MC)",97 % of control
CS(=O)(=O)OCCN(CCOS(C)(=O)=O)c1ccc([N+](=O)[O-])c(C(F)(F)F)c1,T/C,"dose: 50.0 mg/kg/injection, schedule: Q01DX001 (ip), vehicle: saline",94 % of control
same,T/C,[1],96 % of control
same,T/C,[2],96 % of control
same,T/C,[3],94 % of control
S=c1nc[nH]c2nc[nH]c12.[Ag],T/C,"dose: 3.0 mg/kg/injection, schedule: Q01DX009 (ip), vehicle: carboxymethylcellulose (CMC)",106 % of control and 92 % of control
same,T/C,"dose: 6.0 mg/kg/injection, schedule: Q01DX009 (ip), vehicle: carboxymethylcellulose (CMC)",101 % of control
same,T/C,"dose: 12.0 mg/kg/injection, schedule: Q01DX009 (ip), vehicle: carboxymethylcellulose (CMC)",113 % of control
same,T/C,"dose: 50.0 mg/kg/injection, schedule: Q01DX009 (ip), vehicle: carboxymethylcellulose (CMC)",113 % of control and 119 % of control
same,T/C,"dose: 400.0 mg/kg/injection, schedule: Q01DX009 (ip), vehicle: carboxymethylcellulose (CMC)",101 % of control
same,T/C,"dose: 600.0 mg/kg/injection, schedule: Q01DX009 (ip), vehicle: carboxymethylcellulose (CMC)",154 % of control
same,T/C,"dose: 800.0 mg/kg/injection, schedule: Q01DX009 (ip), vehicle: carboxymethylcellulose (CMC)",157 % of control and 159 % of control
same,T/C,"dose: 800.0 mg/kg/injection, schedule: Q01DX009 (ip), vehicle: saline",154 % of control
same,T/C,"dose: 1000.0 mg/kg/injection, schedule: Q01DX009 (ip), vehicle: carboxymethylcellulose (CMC)",119 % of control
same,T/C,"dose: 1000.0 mg/kg/injection, schedule: Q01DX009 (ip), vehicle: saline",154 % of control
CCCCCCCCCCCCCCCCCCn1cnc2c(N)ncnc21,T/C,"dose: 12.5 mg/kg/injection, schedule: Q01DX005 (ip), vehicle: other",105 % of control
same,T/C,"dose: 25.0 mg/kg/injection, schedule: Q01DX005 (ip), vehicle: other",97 % of control
same,T/C,"dose: 50.0 mg/kg/injection, schedule: Q01DX005 (ip), vehicle: other",102 % of control
same,T/C,"dose: 100.0 mg/kg/injection, schedule: Q01DX005 (ip), vehicle: other",103 % of control
same,T/C,"dose: 200.0 mg/kg/injection, schedule: Q01DX005 (ip), vehicle: other",108 % of control
COc1cc(C=O)ccc1OCCCOc1ccc(C=O)cc1OC,T/C,[16],104 % of control
same,T/C,"dose: 100.0 mg/kg/injection, schedule: Q01DX009 (ip), vehicle: saline with Tween-80",93 % of control
same,T/C,"dose: 200.0 mg/kg/injection, schedule: Q01DX009 (ip), vehicle: saline with Tween-80",101 % of control
Cc1ccc([N+](=O)[O-])cc1NC(=O)Nc1cccc(O)c1,T/C,[10],95 % of control
same,T/C,[12],86 % of control
same,T/C,[14],93 % of control
COC(=O)CC(=O)OCC1C=CCC=C1,T/C,[7],106 % of control
same,T/C,[8],95 % of control
same,T/C,[9],92 % of control
S=C(Sc1nc2ccccc2s1)Sc1nc2ccccc2s1,T/C,[17],105 % of control
same,T/C,[18],94 % of control
same,T/C,[19],101 % of control
c1ccc(-c2nnc(-c3ccccn3)nc2-c2ccccc2)cc1,T/C,[7],95 % of control
same,T/C,[8],104 % of control
same,T/C,[9],112 % of control
N#C/C(=C\C1CCCC([N+](=O)[O-])C1)C1CCC([N+](=O)[O-])CC1 (centres undefined),T/C,[17],122 % of control
same,T/C,[18],100 % of control
same,T/C,[19],100 % of control
CC(Oc1ccc([N+](=O)[O-])cc1Cl)C(=O)Nc1ccc(S(=O)(=O)F)cc1 (centres undefined),T/C,[11],100 % of control
same,T/C,[13],100 % of control
same,T/C,[15],92 % of control
O=C(NCCBr)Nc1ccc2c(c1)CCCC2,T/C,[11],102 % of control
same,T/C,[13],93 % of control
same,T/C,[15],93 % of control
